The values that follow come from patent US20260297106A1, “SPIROCYCLIC SUBSTITUTED OXOISOINDOLINYL PIPERIDINE-2,6-DIONE COMPOUND” (Bristol-Myers Squibb Company, priority 2023, published 2026).

Where two headings read alike, the source gives them in different places.

What all share (type): cell-based
One test concerns the target IKZF1 Ikaros (Homo sapiens, UniProt Q13422+Q96SW2). Description: Human CD8+ T Cell Reprogramming Assay (IKZF1 Ikaros). On the set-up: Cryopreserved healthy donor human peripheral blood mononuclear cells; endogenous in cells; host or cells: primary human PBMC, CD8+ T cells read by flow cytometry. Here is the method: Cryopreserved healthy donor human peripheral blood mononuclear cells (PBMC) from healthy donors were thawed and seeded at 500,000 cells/well of 96-well round bottom plates in RPMI 1640 media (Gibco) supplemented with 10% FBS, Pen/Strep (Gibco), MEM-NEAA (Gibco), and sodium pyruvate (Gibco). Cells were treated with titrated doses of compound for 24 hours at 37° C., 5% CO2 before analyzing by flow cytometry.
For flow cytometry staining, cells were washed twice with flow cytometry staining buffer (Thermo Fisher) and incubated in Human Tru-stain Fc block (Biolegend) for 10 minutes before adding eFluor780 viability dye (Thermo Fisher) and surface marker antibody cocktail containing LD-eFluor780, CD3-BUV-395, CD4-BUV805, CD8-FITC, and CD25-BV605 for 30 minutes at 4° C. Cells were then fixed and permeabilized by incubation with permeabilization buffer (eBioscience FoxP3 buffer set 00-5523-00) for 30 minutes at 4° C. as per the kit manufacturer's instructions. Cells were washed twice with the Perm/Wash buffer supplied in the kit as per the manufacturer's instructions and incubated overnight at 4° C. with an intracellular antibody cocktail comprised of antibodies specific for the transcription factors (i.e., Foxp3-BV421, HELIOS-PE-Cy7, EOS-PE, IKAROS-PECF594, AIOLOS-AF647). Cells were washed twice with Perm/Wash buffer and resuspended in flow cytometry staining buffer (Thermo Fisher) prior to acquisition. Sample acquisition and analysis was performed using a BD LSRFortessa (BD Biosciences) flow cytometer. Single-stain controls for each fluorochrome were prepared using UltraComp eBead Compensation Beads (Thermo Fisher). Data were analyzed using FlowJo version 10 and GraphPad Prism Software.
Table D-1 lists the maximum observed degradation of the IKZF1 protein and IKZF3 protein as measured in the Human CD8^+ T Cell Reprogramming assay. The results in Table D-1 were rounded to two digits. In the Human CD8^+ T Cell Reprogramming assay, a value of 100% indicated no detectable protein remaining or complete degradation of the protein; and a value of 0% indicated no detectable degradation of the protein by the test compound.

For another test, the target named is IKZF2 Helios (Homo sapiens, UniProt Q96SW2+Q9UKS7). The test is described as follows: Jurkat Cellular Degradation Assay (IKZF2 Helios). On the set-up: endogenous in cells. The conditions noted are these: Jurkat cells, 72 h; for DC50: concentration reducing protein level by 50% vs DMSO; for Dmax: human, 100% = no detectable protein remaining, read-out: IKZF2 Helios max % deg. observed. Here is the method:
(§1) Jurkat cells were plated at 80,000 cells/well in 40 μL RPMI+10% FBS in a 384-well cell culture plate prior to using acoustic dispensing technology for adding a compound of interest. Cell cultures were incubated for 72 h at 37° C. and 5% CO2. In order to facilitate analysis, cell cultures were spun down at 200 rpm for 5 min and the supernatant was discarded. After shaking the plate to dislodge the cell pellet, cells were resuspended in 50 μL of Fixation Buffer (eBioscience FoxP3 buffer set 00-5523-00) for 60 min at room temperature. After centrifuging and discarding the supernatant, cells were permeabilized with 50 μL of Permeabilization buffer (eBioscience FoxP3 buffer set 00-5523-00) for 10 min at room temperature. Following permeabilization, cells were spun down and the supernatant was replaced with 20 μL fluorescently labelled antibodies against Helios, Ikaros and Aiolos or corresponding Isotype controls in 1× Permeabilization buffer (Ikaros-Alexa488 [Biolegend, Cat #368408, 1:50], Helios-PE [CST, Cat #29360, 1:50], Aiolos-Alexa647 [Biolegend, Cat #371106 Biolegend, 1:25]) and staining reactions were incubated for 1 h at room temperature while protected from light. Subsequently, 30 μL of 1× Permeabilization buffer was added prior to centrifuging the cells and discarding the supernatant. Stained cells were resuspended in 25 μL of flow cytometry staining buffer [PBS+0.2% bovine serum albumin (BSA)] and analyzed using an Intellicyt Ique Plus flow cytometer.
(§2) Table A-1 lists the maximum observed degradation of the IKZF1 protein, IKZF2 protein, and IKZF3 protein as measured in the Jurkat Cellular Degradation assay. The results in Table A-I were rounded to two digits. In the Jurkat Cellular Degradation assay, a value of 100% indicated no detectable protein remaining or complete degradation of the protein; and a value of 0% indicated no detectable degradation of the protein by the test compound.

The target in a further test is IKZF3 Aiolos (Homo sapiens, UniProt Q96SW2+Q9UKT9). Description: Jurkat Cellular Degradation Assay (IKZF3 Aiolos). Particulars: Jurkat cells, 72 h; for Dmax: human, 100% = no detectable protein remaining, read-out: IKZF3 Aiolos max % deg. observed. On the set-up: endogenous in cells. Here is the method:
as §1, §2

Where [1] appears, read: human PBMC, CD8+ T cells, 24 hours, read-out: Maximum Observed Degradation IKZF1 Ikaros.
[2] abbreviates: human, 24 h, Table D-1, read-out: decreased the level of IKZF1 (Ikaros).

IKZF3 Aiolos, sequence (Q9UKT9 whole entry): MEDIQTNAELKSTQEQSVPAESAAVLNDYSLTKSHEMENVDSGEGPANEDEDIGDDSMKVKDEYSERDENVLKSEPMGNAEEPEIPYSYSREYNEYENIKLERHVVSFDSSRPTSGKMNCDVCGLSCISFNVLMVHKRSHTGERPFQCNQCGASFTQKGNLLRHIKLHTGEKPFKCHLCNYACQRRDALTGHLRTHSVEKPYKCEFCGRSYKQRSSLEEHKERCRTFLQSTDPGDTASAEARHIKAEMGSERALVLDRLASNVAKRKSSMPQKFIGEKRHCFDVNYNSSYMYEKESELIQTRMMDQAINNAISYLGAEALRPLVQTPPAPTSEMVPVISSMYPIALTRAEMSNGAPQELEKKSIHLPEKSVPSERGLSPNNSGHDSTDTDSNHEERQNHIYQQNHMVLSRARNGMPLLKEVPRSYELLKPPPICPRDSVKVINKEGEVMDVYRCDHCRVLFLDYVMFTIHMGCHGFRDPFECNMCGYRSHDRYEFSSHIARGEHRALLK
IKZF3 Aiolos, sequence (Q96SW2 whole entry): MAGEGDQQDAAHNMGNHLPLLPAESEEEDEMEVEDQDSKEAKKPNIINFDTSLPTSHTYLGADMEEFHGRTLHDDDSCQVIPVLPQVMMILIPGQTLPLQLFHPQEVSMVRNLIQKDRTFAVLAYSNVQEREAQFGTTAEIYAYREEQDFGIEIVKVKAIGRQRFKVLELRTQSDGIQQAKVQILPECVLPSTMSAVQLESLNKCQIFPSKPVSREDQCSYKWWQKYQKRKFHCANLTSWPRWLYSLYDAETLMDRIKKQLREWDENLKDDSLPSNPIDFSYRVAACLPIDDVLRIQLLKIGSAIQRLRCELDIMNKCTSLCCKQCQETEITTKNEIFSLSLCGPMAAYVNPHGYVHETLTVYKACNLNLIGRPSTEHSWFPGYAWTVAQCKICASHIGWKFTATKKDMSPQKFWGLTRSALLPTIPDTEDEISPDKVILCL
IKZF3 Aiolos, sequence (Q16531 whole entry partner): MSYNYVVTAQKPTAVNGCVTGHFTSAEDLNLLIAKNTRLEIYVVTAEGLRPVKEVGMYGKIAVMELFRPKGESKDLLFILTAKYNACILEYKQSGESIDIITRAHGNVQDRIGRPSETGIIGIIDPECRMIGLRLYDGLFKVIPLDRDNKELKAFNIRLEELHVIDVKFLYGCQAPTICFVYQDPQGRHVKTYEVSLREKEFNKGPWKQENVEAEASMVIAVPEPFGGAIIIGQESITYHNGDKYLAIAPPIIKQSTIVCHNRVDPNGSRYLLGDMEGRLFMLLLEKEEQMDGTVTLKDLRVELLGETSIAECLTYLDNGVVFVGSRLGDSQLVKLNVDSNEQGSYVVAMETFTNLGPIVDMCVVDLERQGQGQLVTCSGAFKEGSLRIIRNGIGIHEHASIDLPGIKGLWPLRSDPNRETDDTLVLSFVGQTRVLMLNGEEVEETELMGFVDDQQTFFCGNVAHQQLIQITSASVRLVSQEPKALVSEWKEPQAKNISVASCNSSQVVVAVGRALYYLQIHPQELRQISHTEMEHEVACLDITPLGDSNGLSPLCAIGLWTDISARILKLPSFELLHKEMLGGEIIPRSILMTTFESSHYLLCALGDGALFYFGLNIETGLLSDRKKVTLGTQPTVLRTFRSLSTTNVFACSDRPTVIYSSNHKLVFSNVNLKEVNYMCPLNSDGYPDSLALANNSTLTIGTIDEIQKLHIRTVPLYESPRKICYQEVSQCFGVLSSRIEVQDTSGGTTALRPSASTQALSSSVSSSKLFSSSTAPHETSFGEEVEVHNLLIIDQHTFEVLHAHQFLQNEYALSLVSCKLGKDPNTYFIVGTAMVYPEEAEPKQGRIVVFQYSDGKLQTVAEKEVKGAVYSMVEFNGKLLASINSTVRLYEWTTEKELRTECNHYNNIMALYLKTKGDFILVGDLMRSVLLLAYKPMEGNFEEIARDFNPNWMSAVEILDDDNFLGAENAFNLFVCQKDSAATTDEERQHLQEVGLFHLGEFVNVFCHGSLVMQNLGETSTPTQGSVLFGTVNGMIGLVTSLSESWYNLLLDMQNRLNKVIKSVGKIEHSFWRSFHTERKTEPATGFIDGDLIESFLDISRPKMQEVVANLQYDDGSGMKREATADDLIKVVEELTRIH
IKZF2 Helios, sequence (Q9UKS7 whole entry): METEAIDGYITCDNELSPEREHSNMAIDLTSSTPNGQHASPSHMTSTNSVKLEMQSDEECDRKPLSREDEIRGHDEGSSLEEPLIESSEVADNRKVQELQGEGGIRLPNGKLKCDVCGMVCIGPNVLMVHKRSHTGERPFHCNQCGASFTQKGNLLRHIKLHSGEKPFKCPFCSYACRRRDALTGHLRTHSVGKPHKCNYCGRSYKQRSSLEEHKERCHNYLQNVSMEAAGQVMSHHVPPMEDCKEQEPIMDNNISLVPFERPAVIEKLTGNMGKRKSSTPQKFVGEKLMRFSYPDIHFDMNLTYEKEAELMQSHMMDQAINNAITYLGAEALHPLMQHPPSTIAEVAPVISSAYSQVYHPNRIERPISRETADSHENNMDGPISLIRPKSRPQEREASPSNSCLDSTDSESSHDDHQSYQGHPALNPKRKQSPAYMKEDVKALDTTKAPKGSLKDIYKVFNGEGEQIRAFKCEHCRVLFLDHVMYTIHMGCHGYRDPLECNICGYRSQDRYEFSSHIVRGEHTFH
IKZF2 Helios, sequence (Q96SW2 whole entry): as the sequence (Q96SW2 whole entry) above
IKZF2 Helios, sequence (Q16531 whole entry partner): as the sequence (Q16531 whole entry partner) above
IKZF1 Ikaros, sequence (Q13422 whole entry): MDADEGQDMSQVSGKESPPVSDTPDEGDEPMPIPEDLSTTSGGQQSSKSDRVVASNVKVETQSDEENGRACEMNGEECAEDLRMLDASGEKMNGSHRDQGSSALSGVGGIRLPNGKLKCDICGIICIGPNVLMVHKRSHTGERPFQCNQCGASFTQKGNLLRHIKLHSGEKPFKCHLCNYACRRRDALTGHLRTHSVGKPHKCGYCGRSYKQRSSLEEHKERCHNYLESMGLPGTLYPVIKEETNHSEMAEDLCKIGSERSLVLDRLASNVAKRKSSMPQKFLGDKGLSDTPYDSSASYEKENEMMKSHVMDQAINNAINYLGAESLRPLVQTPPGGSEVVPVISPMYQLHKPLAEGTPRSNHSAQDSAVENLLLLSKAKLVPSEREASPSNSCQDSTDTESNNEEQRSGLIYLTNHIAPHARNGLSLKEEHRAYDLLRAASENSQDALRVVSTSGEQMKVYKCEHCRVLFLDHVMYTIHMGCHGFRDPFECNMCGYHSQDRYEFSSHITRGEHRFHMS
IKZF1 Ikaros, sequence (Q96SW2 whole entry): as the sequence (Q96SW2 whole entry) above
IKZF1 Ikaros, sequence (Q16531 whole entry partner): as the sequence (Q16531 whole entry partner) above

Regarding `O=C1CCC(N2Cc3c(ccc(-c4cc(CN5CC(c6ccccc6)C5)ccn4)c3F)C2=O)C(=O)N1` (centres unmarked) [Comparative Compound A, 3-(4-fluoro-1-oxo-5-(4-((3-phenylazetidin-1-yl)methyl)pyridin-2-yl)isoindolin-2-yl) piperidine-2,6-dione], the Dmax is 20% at IKZF1 Ikaros (setting [1]), at most 20% at IKZF1 Ikaros (setting [2]) and 14% on IKZF3 Aiolos. This molecule also came in with a DC50 at IKZF2 Helios of 2.9 nM.

With `Nc1nc(-c2ccc3c(c2)CN(C2CCC(=O)NC2=O)C3=O)ccc1CN1CC2(CCC2)C1` (centres unmarked) [Comparative Compound B, 3-(5-(5-((2-azaspiro[3.3]heptan-2-yl)methyl)-6-aminopyridin-2-yl)-1-oxoisoindolin-2-yl) piperidine-2,6-dione], the Dmax at IKZF1 Ikaros (setting [1]) was 11%; on IKZF1 Ikaros (setting [2]), at most 20%; at IKZF2 Helios, 90%; at IKZF3 Aiolos it was 28%. In addition, the DC50 at IKZF2 Helios was 8 nM.

As for `Nc1nc(-c2ccc3c(c2F)CN(C2CCC(=O)NC2=O)C3=O)ccc1CN1CC2(CCCOC2)C1` (centres unmarked) [Example 1, 3-(5-(5-((6-oxa-2-azaspiro[3.5]nonan-2-yl)methyl)-6-aminopyridin-2-yl)-4-fluoro-1-oxoisoindolin-2-yl) piperidine-2,6-dione], the DC50 on IKZF1 Ikaros (human PBMC, CD8+ T cells, 24 hours, concentration reducing protein level by 50% vs DMSO) is 29 to 43 nM; on IKZF2 Helios, 8.5 nM; at IKZF3 Aiolos (concentration reducing protein level by 50% vs DMSO), over 10000 nM. For the same molecule, the Dmax on IKZF1 Ikaros (setting [1]) was 64 to 65%; at IKZF1 Ikaros (setting [2]), 64 to 65%; on IKZF1 Ikaros (human, 24 h, Table E comparison, from Table D-1, read-out: IKZF1 Ikaros max % deg. observed), 64 to 65%; at IKZF2 Helios it was 91%; on IKZF3 Aiolos, 33%.
